Laboratory results: patent US5502202A, “Aminoalkylthiazole derivative” (Taisho Pharmaceutical Co., Ltd., priority 1991, dated 1996)
pIC50: −log10 of the molar value. Structures can show the parent of a compound that is named as a salt.

How the values were obtained:
[1] = target: sigma receptor (Rattus norvegicus, UniProt Q9R0C9); test: biochemical; assay type: binding, rat (male Wistar); settings: for pIC50: 2 nM [3H](+)-3-PPP, rat whole brain membrane, pH 8.0, 21° C., 90 min; for inhibition at 1 µM: pH 8, read-out: Sigma receptor Inhibition % (1 μM)
Sequence of sigma receptor (Rattus norvegicus, UniProt Q9R0C9) (Q9R0C9 whole entry): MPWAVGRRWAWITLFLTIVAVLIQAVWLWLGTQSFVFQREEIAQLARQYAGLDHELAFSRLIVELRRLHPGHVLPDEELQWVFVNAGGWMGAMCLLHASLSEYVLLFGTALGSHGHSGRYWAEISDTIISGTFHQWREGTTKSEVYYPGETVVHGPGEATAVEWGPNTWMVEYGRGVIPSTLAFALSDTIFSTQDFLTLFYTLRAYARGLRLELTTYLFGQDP
Experimental: (§1) Male Wistar rats were employed as test animals.
(§2) Radiolabeled ^3 H! […] (-)-sulpiride was used as a compound specifically binding to dopamine D2 receptor.
(§3) Reactions of these ^3 H! compounds binding to the corresponding receptors were performed respectively in accordance with the following methods (1) and (2) described in Molecular Pharmacology, 32, 772 (1987), Journal of Pharmacy and Pharmacology, 32, 441 (1980) and Molecular Pharmacology, 32, 820 (1987).
(§4) After the completion of each reaction, the reaction mixture was filtered with suction into a glass filter (GF/B) and the radioactivity of the filter paper was measured with a liquid scintillation spectrometer.
(§5) (-)-sulpiride, and the difference between the total binding (the value measured by adding no test drug) and the nonspecific binding was referred to as the specific binding.
(§6) By reacting the ^3 H! compound at a definite concentration (2 nM) with the test drugs at various concentrations under the conditions as specified in the above (1) and (2), inhibition curves were obtained. On the basis of these inhibition curves, the concentration of each test drug causing 50% inhibition of the specific binding (IC50) was determined.

[2] = tested on: (+)-SKF 10047-induced stereotypical behavior; test: Test on action on (+)-SKF 10047-induced abnormal (stereotypical) behaviors; assay type: in vivo, mouse (male ICR); settings: Mus musculus; oral, 30 min (35 min for drug C) before 30 mg/kg i.p. (+)-SKF 10047; scores over 40 min; read-out: ED25 (stereotypical behavior suppression)
Experimental: TEST EXAMPLE 2 Test on Action on (+)-[…] Abnormal Behaviors! Male ICR mice (Nippon Charles River) aged 4 to 5 weeks were divided into groups each having 10 animals and used. Each animal was separately fed in a small transparent cage and fully familiarized with its environment. To the animals, test drugs […] % gum arabic at various concentrations were orally administered. […] Since 10 minutes thereafter, stereotypical behavior scores were measured for 40 minutes at intervals of 5 minutes. (Test drug) (Stereotypical behavior score) 0: normal behaviors 1: sniffing, standing up 2: discontinuous movement, sniffing stronger than 1 3: circling, moving backward 4: continuous circling 5: bending and stretching of limbs, head and neck The stereotypical behavior suppression ratio was determined on the basis of the sum of the scores of the test groups measured 8 times within 40 minutes by referring the sum of the score of a solvent (distilled water for injection) administered-group measured 8 times within 40 minutes as to 100%. Each ED25 value was calculated by determining the slope of a line of the suppression ratio formed by the method of least squares.

[3] = target: sigma receptor; settings: rimcazole, cited from European Journal of Pharmacology, 155, 345 (1988); cited from earlier work
[4] = target: dopamine D2 receptor; settings: rimcazole, cited; value for [3H] spiperone binding; cited from earlier work
[5] = target: dopamine D2 receptor (Rattus norvegicus, UniProt P61169); test: biochemical; assay type: binding, rat (male Wistar); settings: for pIC50: 2 nM [3H](-)-sulpiride, rat striata membrane, pH 7.7, 37° C., 10 min; for inhibition at 1 µM: pH 7.7, read-out: Dopamine D2 receptor Inhibition % (1 μM)
Sequence of dopamine D2 receptor (Rattus norvegicus, UniProt P61169) (P61169 whole entry): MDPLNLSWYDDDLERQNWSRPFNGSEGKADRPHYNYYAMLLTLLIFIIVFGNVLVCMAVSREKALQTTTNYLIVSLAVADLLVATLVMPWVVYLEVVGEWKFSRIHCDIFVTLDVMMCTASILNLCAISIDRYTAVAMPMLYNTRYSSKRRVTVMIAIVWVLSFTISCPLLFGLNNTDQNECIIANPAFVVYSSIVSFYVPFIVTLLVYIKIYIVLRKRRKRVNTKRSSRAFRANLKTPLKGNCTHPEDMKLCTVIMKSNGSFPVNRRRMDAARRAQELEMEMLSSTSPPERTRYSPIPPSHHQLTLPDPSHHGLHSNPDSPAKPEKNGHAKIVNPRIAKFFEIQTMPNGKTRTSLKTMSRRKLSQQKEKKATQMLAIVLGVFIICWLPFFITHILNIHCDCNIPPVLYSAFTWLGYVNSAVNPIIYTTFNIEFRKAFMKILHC
Experimental: as §1, §2, §3
(2) ^3 H! (-)-sulpiride binding:
(-)-sulpiride and a test drug were incubated in 1 ml of a 50 mM Tris-HCl buffer solution (pH 7.7) at 37° C. for 10 minutes.
as §4, §5, §6

[6] = tested on: dopamine autoreceptor; settings: reported in literature, cited from earlier work

Row | Compound | pIC50 [1] | ED25 [2] | inhibition at 1 µM [1] | further results
1 | CCCN1CCCC(c2cccc(O)c2)C1 (single isomer, unassigned) [3-PPP, 3-(3-hydroxyphenyl)-N-n-propylpiperidine, reference compound] | 7.61 |  |  | 
2 | OC(CCCN1CCN(c2ncc(F)cn2)CC1)c1ccc(F)cc1 (stereo not drawn) [BMY 14802] |  | 7.6 mg/kg |  | 
3 | C[C@@H]1CN(CCCn2c3ccccc3c3ccccc32)C[C@H](C)N1 [Rimcazole] |  | 37.9 mg/kg |  | pIC50 [3]: 5.84; pIC50 [4]: 4.07
4 | CCCCCN(CCCCC)CCc1sc(N)nc1-c1ccc(Br)cc1 [Test Drug A (Table 1), 2Amino-4-(4-bromophenyl)-5-(2-di-n-pentylaminoethyl)-thiazole dihydrochloride] | 8.06 |  | 93.1% | 
5 | CCCCCCN(CCCCCC)CCc1sc(N)nc1-c1ccc(Br)cc1.Cl.Cl [Test Drug B (Table 1), 2-Amino-4-(4-bromophenyl)-5-(2-di-n-hexylaminoethyl)thiazole dihydrochloride] | 8.80 | 0.019 mg/kg | 100% | pIC50 [5]: < 6.00; inhibition at 1 µM [5]: -33.3%
6 | CCCCCCCCN(CCCCCCCC)CCc1sc(N)nc1-c1ccc(Br)cc1 [Test Drug C (Table 1), 2Amino-4-(4-bromophenyl)-5-(2-di-n-octylaminoethyl)-thiazole dihydrochloride] | 8.49 |  | 99.7% | pIC50 [5]: < 6.00; inhibition at 1 µM [5]: -31%
7 | C=CCN1CCc2nc(N)sc2CC1 [talipexole] |  |  |  | effect on dopamine nerve system (in words) ([6]; by stimulating the presynaptic autoreceptor): suppresses nerve ignition and biosynthesis and liberation of dopamine; selective dopamine autoreceptor agonism (in words) [6]: selective dopamine autoreceptor agonist
